We go through 14 sequences from publication PMC3518498 (Oncoimmunology, 2012).

Assay [1] has as its target T1, HLA-A2 (A*0201) (Homo sapiens, UniProt P04439, D140Y/D185E/D98H/E176V/E277Q/G131W/G231S/I119V/I121R/I166T/I218V/L300P/L318F/N151K/N90K/P208A/P217A/Q86G/Q94H/R138H/R169H/T345S). The assay can be described thus: iTopia initial binding assay. To be noted: Table 1.
The target in assay [2] is T1, HLA-A2 (A*0201). The assay can be described thus: iTopia stability. To be noted: Table 1.
Assay [3] has as its system HLA-A2 transgenic (HHD) mice. As to the kind of experiment: Peptide immunization of HHD mice, IFNγ intracellular staining of splenocytes. The format is in vivo, mouse. The note with it: for Average % CD8+IFNγ+ cells: group average, splenocytes stimulated with native peptide.

As for ALCRWGLLV [H.5.V9], the “Initial binding, % pos control” value on HLA-A2 (A*0201) [1] is recorded as 72.3 % pos control. Further, at HLA-A2 (A*0201) [2], the “Binding after 8 h incubation w/o free peptide, % pos control” value worked out at 33.9 % pos control and the “MHC complex stability (T1/2)” value is recorded as 6.2 h.

On to ALVGILLVVV [H.657(10).L2], for which the “Initial binding, % pos control” value at HLA-A2 (A*0201) [1] is recorded as 13.8 % pos control. Further, the “Binding after 8 h incubation w/o free peptide, % pos control” value at HLA-A2 (A*0201) [2] was 17.8 % pos control.

As for ALVGIMIGV [C.687.L2], the “Initial binding, % pos control” value on HLA-A2 (A*0201) [1] is reported as 73.7 % pos control. Moreover, at HLA-A2 (A*0201) [2], the “Binding after 8 h incubation w/o free peptide, % pos control” value is on record as 76.2 % pos control and the “MHC complex stability (T1/2)” value is 26.3 h.

In the case of AVVGILLVV [H.657], the “Initial binding, % pos control” value on HLA-A2 (A*0201) [1] is 20.6 % pos control. Also, at HLA-A2 (A*0201) [2], the “Binding after 8 h incubation w/o free peptide, % pos control” value stood at 12.0 % pos control and the “MHC complex stability (T1/2)” value is 8.6 h.

For FLDLQVNSL [T.986], at HLA-A2 (A*0201) [1], the “Initial binding, % pos control” value stood at 69.5 % pos control. Besides, at HLA-A2 (A*0201) [2], the “Binding after 8 h incubation w/o free peptide, % pos control” value was found to be 54.5 % pos control and the “MHC complex stability (T1/2)” value is listed as 7.8 h.

For FLHWLMSVYV [T.544], at HLA-A2 (A*0201) [1], the “Initial binding, % pos control” value amounted to 48.0 % pos control. Further, at HLA-A2 (A*0201) [2], the “Binding after 8 h incubation w/o free peptide, % pos control” value is listed as 74.4 % pos control and the “MHC complex stability (T1/2)” value amounted to 40.0 h.

For FLVDDFLLV [T.865.F1], the “Initial binding, % pos control” value at HLA-A2 (A*0201) [1] stood at 88.4 % pos control. The “Average % CD8+IFNγ+ cells” value in assay [3] (HHD mice) is on record as above 0.1 % CD8+IFNγ+ cells. In addition, the “Fold higher native peptide-specific T-cell response with analog” value in assay [3] (analog vs. native peptide immunization, HHD mice) came out at 1.9 fold. In addition, at HLA-A2 (A*0201) [2], the “Binding after 8 h incubation w/o free peptide, % pos control” value is 76.2 % pos control and the “MHC complex stability (T1/2)” value is 13.2 h.

Take ILAKFLHWLM [T.540(10)]: the “Corresponding native peptide: CMIR, % CD8+IFNγ+ cells” value in assay [3] (HHD mice immunized with the native peptide, Table 1) was found to be 0.06 % CD8+IFNγ+ cells. Also, in assay [3] (HHD mice immunized with the native peptide, responder > 0.1%, Table 1), the “Corresponding native peptide: Fraction of responders” value was 1/5.

With ILAKFLHWLV [T.540(10).V10], at HLA-A2 (A*0201) [1], the “Initial binding, % pos control” value came to 99.8 % pos control. In addition, the “Average % CD8+IFNγ+ cells” value in assay [3] (HHD mice) is listed as above 0.1 % CD8+IFNγ+ cells. Also, on HLA-A2 (A*0201) [2], the “Binding after 8 h incubation w/o free peptide, % pos control” value was found to be 88.8 % pos control and the “MHC complex stability (T1/2)” value stood at 16.8 h.

Regarding KLFGSLAFL, at HLA-A2 (A*0201) [1], the “Initial binding, % pos control” value worked out at 79.7 % pos control. Also, at HLA-A2 (A*0201) [2], the “Binding after 8 h incubation w/o free peptide, % pos control” value is recorded as 114.9 % pos control and the “MHC complex stability (T1/2)” value is 40.0 h.

Turning to LLDTRTLEV [T.934], the “Initial binding, % pos control” value on HLA-A2 (A*0201) [1] was 80.2 % pos control. Moreover, at HLA-A2 (A*0201) [2], the “Binding after 8 h incubation w/o free peptide, % pos control” value is on record as 66.3 % pos control and the “MHC complex stability (T1/2)” value was found to be 21.6 h.

As for RLTVTTITV [C.310.L2], at HLA-A2 (A*0201) [1], the “Initial binding, % pos control” value is given as 61.2 % pos control. In addition, in assay [3] (HHD mice, individual animals), the “Range of individual mouse responses, % CD8+IFNγ+ cells” value is reported as 3.0–14.3%. Further, on HLA-A2 (A*0201) [2], the “Binding after 8 h incubation w/o free peptide, % pos control” value stood at 64.4 % pos control and the “MHC complex stability (T1/2)” value turned out to be 25.4 h.

As to VVLGVVFGV [H.665.V9], the “Initial binding, % pos control” value at HLA-A2 (A*0201) [1] is given as 65.8 % pos control. Also, on HLA-A2 (A*0201) [2], the “Binding after 8 h incubation w/o free peptide, % pos control” value is on record as 72.7 % pos control and the “MHC complex stability (T1/2)” value is recorded as 40.0 h.

Take YLSGANLNV [C.605.V9]: the “Initial binding, % pos control” value on HLA-A2 (A*0201) [1] came to 73.2 % pos control. Also, on HLA-A2 (A*0201) [2], the “Binding after 8 h incubation w/o free peptide, % pos control” value is given as 78.5 % pos control and the “MHC complex stability (T1/2)” value was found to be 27.4 h.
